One assay concerns Human venous whole blood. The assay can be described thus: Human whole blood IFN-γ assay.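 Also: blood from healthy donors exposed to compound for 1 h before stimulation with anti-CD3 and anti-CD28 at 1 µg/mL each, IFN-γ quantified in supernatant by AlphaLISA.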 It is filed as cell-based. As to conditions: human whole blood, normalized to 3 μM reference compound with anti-CD3 plus anti-CD28 as 100% activation, read-out: INFg Whole Blood Normalized Agonist EC50.
A further assay has as its target T1, human DGKα (Homo sapiens, UniProt P23743).
T1 construct: TVMV protease cleavage site (C); Hexa-His (C); made in house; host or cells: Sf9 insect cells (baculovirus, Bac-to-Bac)
The assay can be described thus: DGKα LIPGLO assay (extruded liposome substrate), in vitro DGK inhibition. The class given is biochemical. As to conditions: liposome (LIPGLO) assay; read-out: DGKa LIPGLO IC50.

In another assay the test system is naïve human CD8 T cells. In words: Human CD8 T cells IFN-γ assay.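 Also: Naïve human CD8 T cells stimulated with plate-bound anti-CD3 and soluble anti-CD28, IFN-γ in supernatant quantified by AlphaLISA and converted to pg/mL.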 The class given is cell-based. Particulars: normalized to 3 μM reference compound with anti-CD3 plus anti-CD28 as 100% activation, read-out: HuCD8 INFG Normalized EC50.
Another assay deals with T2, human DGKζ (Homo sapiens, UniProt Q13574).
T2 construct: TVMV protease cleavage site (C); Hexa-His (C); made in house; host or cells: Sf9 insect cells (baculovirus, Bac-to-Bac)
In words: DGKζ LIPGLO assay (extruded liposome substrate), in vitro DGK inhibition. The class given is biochemical. As to conditions: liposome (LIPGLO) assay; read-out: DGKz LIPGLO IC50.

The subject of assay [1] is OT-1 CD8+ T cells with SIINFEKL-loaded MC38 tumor cells. In words: Murine cytotoxic T lymphocyte assay (IFN-γ, OT-1 CTL with MC38 tumor cells). The class given is cell-based, mouse. As to conditions: read-out: msCTL INFg IC50. The method, boiled down:
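IFN-γ was quantified by AlphaLISA in supernatants after 24 h co-culture at 37° C. Effectors were OT-1 CD8+ CTLs (5-day peptide/mIL2 expansion), exposed 1 h to DGK inhibitors before mixing 1:10 with MC38 tumor cells loaded 3 h with 1 μg/mL SIINFEKL peptide.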

SMILES strings stand for the structures. Where two headings read alike, the source gives them in different places.

T2 sequence (Q13574 with tags, fused parts or gaps isoform Q13574-4): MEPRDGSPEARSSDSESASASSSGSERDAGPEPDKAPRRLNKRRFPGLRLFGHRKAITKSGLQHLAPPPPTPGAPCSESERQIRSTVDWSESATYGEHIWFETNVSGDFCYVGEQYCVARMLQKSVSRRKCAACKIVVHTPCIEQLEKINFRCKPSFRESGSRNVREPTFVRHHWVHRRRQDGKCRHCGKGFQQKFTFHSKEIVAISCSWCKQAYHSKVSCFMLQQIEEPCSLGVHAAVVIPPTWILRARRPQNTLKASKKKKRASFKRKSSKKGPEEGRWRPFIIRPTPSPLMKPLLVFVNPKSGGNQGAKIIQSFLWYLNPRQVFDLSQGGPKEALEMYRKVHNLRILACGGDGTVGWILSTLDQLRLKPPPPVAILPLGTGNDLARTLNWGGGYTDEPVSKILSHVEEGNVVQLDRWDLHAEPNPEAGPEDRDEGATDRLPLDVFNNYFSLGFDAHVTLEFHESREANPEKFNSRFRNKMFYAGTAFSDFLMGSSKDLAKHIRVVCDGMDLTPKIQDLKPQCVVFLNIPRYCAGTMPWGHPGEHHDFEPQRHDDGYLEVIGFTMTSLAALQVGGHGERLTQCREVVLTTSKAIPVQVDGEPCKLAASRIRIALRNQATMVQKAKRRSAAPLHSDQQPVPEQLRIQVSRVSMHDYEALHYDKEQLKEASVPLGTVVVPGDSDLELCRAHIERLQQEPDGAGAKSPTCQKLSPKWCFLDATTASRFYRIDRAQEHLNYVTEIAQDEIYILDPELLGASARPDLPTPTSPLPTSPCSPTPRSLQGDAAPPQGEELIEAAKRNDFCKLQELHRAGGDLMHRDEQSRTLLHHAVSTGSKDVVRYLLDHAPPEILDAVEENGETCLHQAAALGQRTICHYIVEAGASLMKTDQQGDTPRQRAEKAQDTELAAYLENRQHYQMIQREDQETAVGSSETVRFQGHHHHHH
T1 sequence (P23743 with tags, fused parts or gaps): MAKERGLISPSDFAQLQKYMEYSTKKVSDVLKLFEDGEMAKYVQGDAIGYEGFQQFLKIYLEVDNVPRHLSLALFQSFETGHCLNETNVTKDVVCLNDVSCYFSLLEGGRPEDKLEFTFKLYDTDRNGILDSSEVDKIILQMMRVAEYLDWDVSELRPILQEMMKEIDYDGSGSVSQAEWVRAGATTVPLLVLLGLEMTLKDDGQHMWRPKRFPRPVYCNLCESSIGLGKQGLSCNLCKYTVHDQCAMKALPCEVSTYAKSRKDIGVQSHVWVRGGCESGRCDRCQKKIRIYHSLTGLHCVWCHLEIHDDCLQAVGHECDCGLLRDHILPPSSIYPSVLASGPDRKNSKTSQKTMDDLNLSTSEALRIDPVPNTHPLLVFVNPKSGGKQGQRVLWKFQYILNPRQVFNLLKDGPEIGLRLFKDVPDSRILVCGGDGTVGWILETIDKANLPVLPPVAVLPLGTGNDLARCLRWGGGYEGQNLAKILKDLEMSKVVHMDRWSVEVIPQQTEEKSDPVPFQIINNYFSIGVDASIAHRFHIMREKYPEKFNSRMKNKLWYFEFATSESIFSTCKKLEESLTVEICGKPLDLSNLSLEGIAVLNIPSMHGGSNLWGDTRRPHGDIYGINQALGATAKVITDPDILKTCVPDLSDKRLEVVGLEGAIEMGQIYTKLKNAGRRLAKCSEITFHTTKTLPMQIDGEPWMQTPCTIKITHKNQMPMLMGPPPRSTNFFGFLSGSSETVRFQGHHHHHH
Method for Human venous whole blood: Human Whole Blood IFN-γ Assay
Human venous whole blood (22.5 μL per well), obtained from healthy donors, was pre-treated with compounds for one hour at 37° C. in a humidified 95% air/5% CO2 incubator. The blood was stimulated with 2.5 μL anti-human CD3 and anti-CD28 mAb at a final concentration of 1 μg/mL each for 24 hours at 37° C. IFN-γ in the supernatants was measured using AlphLISA kit (Cat # AL217).

In the case of `COc1cc(F)ccc1C(c1ccc(F)cc1)N1C[C@H](C)N(c2cc(=O)n(C)c3ccc(C#N)nc23)C[C@H]1C` (single isomer, unassigned) [Example 119], the results for the EC50 with Human venous whole blood and in the assay with naïve human CD8 T cells were 5.1 µM and 0.61 µM, respectively. The IC50 – broadly, the concentration that inhibits the measured activity by half – on human DGKα came to 29 µM; at human DGKζ, 1.7 µM; in assay [1] it was 6.3 µM.
On to `COC(=O)C1CN(c2cc(=O)n(C)c3ccc(C#N)nc23)CCN1C(c1ccc(F)cc1)c1ccc(F)cc1` (stereo not shown) [Example 27, Methyl 1-(bis(4-fluorophenyl)methyl)-4-(6-cyano-1-methyl-2-oxo-1,2-dihydro-1,5-naphthyridin-4-yl)piperazine-2-carboxylate], for which the EC50 (usually the midpoint of the concentration-response curve) with Human venous whole blood (Homo sapiens) turned out to be 0.52 µM; in the assay on naïve human CD8 T cells (Homo sapiens, T-cell, 20 h), 0.062 µM. For the same compound, the IC50 on human DGKα is 240 µM; on human DGKζ it was 1.7 µM; in assay [1] (Mus musculus, MC-38), 0.064 µM.
With `CC[C@H]1CN(c2cc(=O)n(C)c3ccc(C#N)nc23)CCN1C(c1ccc(F)cc1)c1ccc(F)cc1` [Example 128, (S)-8-(4-(bis(4-fluorophenyl)methyl)-3-ethylpiperazin-1-yl)-5-methyl-6-oxo-5,6-dihydro-1,5-naphthyridine-2-carbonitrile], the EC50 stood at 20 µM in the assay with Human venous whole blood (Homo sapiens, 24 h) and 1.4 µM with naïve human CD8 T cells (Homo sapiens, T-cell, 20 h). In addition, the IC50 was determined as 47 µM on human DGKα; 2 µM on human DGKζ; 0.94 µM in assay [1] (Mus musculus, MC-38).
Consider `COC(=O)C1CN(c2c(Cl)c(=O)n(C)c3ccc(C#N)nc23)CCN1C(c1ccc(F)cc1)c1ccc(F)cc1` (single isomer, unassigned) [Example 77, methyl 1-(bis(4-fluorophenyl)methyl)-4-(3-chloro-6-cyano-1-methyl-2-oxo-1,2-dihydro-1,5-naphthyridin-4-yl)piperazine-2-carboxylate], for which the EC50 in the assay with Human venous whole blood was determined as 1.7 µM; in the assay with naïve human CD8 T cells, 10 µM. The IC50 on human DGKα is 81 µM; at human DGKζ, 240 µM; in assay [1], 3.3 µM.
The matching figures for `COc1cc(F)ccc1C(c1ccc(F)cc1)N1C[C@H](C)N(c2cc(=O)n(C)c3ccc(C#N)nc23)C[C@H]1C` (single isomer, unassigned) [Example 109]: 1.3 µM, 0.015 µM, 24 µM, 0.1 µM and 0.48 µM.
With `Cc1ccc(C(c2ccc(Cl)cc2)N2C[C@H](C)N(c3cc(=O)n(C)c4ccc(C#N)nc34)C[C@H]2C)cc1` (single isomer, unassigned) [Example 247], the EC50 with Human venous whole blood (Homo sapiens, 24 h) amounted to 0.39 µM; in the assay with naïve human CD8 T cells (Homo sapiens, T-cell, 20 h), 0.12 µM. The IC50 at human DGKα turned out to be 0.37 µM; at human DGKζ, 0.21 µM; in assay [1] (Mus musculus, MC-38), 0.11 µM.
Turning to `Cn1c(=O)cc(N2CCN(C(c3ccc(F)cc3)c3ccc(F)cc3)C(C(C)(C)O)C2)c2nc(C#N)ccc21` (single isomer, unassigned) [Example 79, 8-(4-(bis(4-fluorophenyl)methyl)-3-(2-hydroxypropan-2-yl)piperazin-1-yl)-5-methyl-6-oxo-5,6-dihydro-1,5-naphthyridine-2-carbonitrile], the EC50 in the assay on Human venous whole blood and in the assay with naïve human CD8 T cells was 10 µM each time. The IC50 came out at 6.7 µM at human DGKα, 240 µM on human DGKζ and 8 µM in assay [1].
On to `Cn1c(=O)c(Cl)c(N2CCN(C(c3ccc(F)cc3)c3ccc(F)cc3)C(CO)C2)c2nc(C#N)ccc21` (single isomer, unassigned) [Example 100, 8-(4-(bis (4-fluorophenyl)methyl)-3-(hydroxymethyl)piperazin-1-yl)-7-chloro-5-methyl-6-oxo-5,6-dihydro-1,5-naphthyridine-2-carbonitrile], for which the EC50 with Human venous whole blood (Homo sapiens, 24 h) came to 1.4 µM; in the assay with naïve human CD8 T cells (Homo sapiens, T-cell, 20 h) it was 0.089 µM. For the same compound, the IC50 came to 1.9 µM at human DGKα; 3.1 µM at human DGKζ; 0.11 µM in assay [1] (Mus musculus, MC-38).
On the same counts, the results for `C[C@@H]1CN(c2c(C#N)c(=O)n(C)c3ccc(C#N)nc23)[C@@H](C)CN1C(c1ccc(F)cc1)c1ccc(F)cc1` [Example 159, 8-((2S,5R)-4-(bis(4-fluorophenyl)methyl)-2,5-dimethylpiperazin-1-yl)-5-methyl-6-oxo-5,6-dihydro-1,5-naphthyridine-2,7-dicarbonitrile] are 1 µM, 0.035 µM, 2.8 µM, 0.96 µM and 0.14 µM.
On to `COC(=O)C1CN(c2c(C#N)c(=O)n(C)c3ccc(C#N)nc23)CCN1C(c1ccc(F)cc1)c1ccc(F)cc1` (single isomer, unassigned) [Example 50, methyl 1-(bis(4-fluorophenyl)methyl)-4-(3,6-dicyano-1-methyl-2-oxo-1,2-dihydro-1,5-naphthyridin-4-yl)piperazine-2-carboxylate], for which the EC50 in the assay with Human venous whole blood (Homo sapiens, 24 h) came to 1.5 µM; with naïve human CD8 T cells, 0.072 µM. Also, the values for the concentration for half-maximal inhibition (IC50) (on human DGKα; on human DGKζ; in assay [1]) were 2.2 µM, 0.75 µM and 0.15 µM, respectively.
In the case of `Cn1c(=O)cc(N2CCN(C(c3ccc(F)cc3)c3ccc(F)cc3)C(CO)C2)c2nc(C#N)ccc21` (single isomer, unassigned) [Example 1, 8-(4-(bis(4-fluorophenyl)methyl)-3-(hydroxymethyl)piperazin-1-yl)-5-methyl-6-oxo-5,6-dihydro-1,5-naphthyridine-2-carbonitrile], the EC50 worked out at 0.82 µM in the assay with Human venous whole blood and 0.096 µM in the assay on naïve human CD8 T cells. For the same compound, the IC50 at human DGKα came out at 3 µM; at human DGKζ, 0.48 µM; in assay [1], 0.23 µM.
Turning to `CC(C)[C@@H]1CN(c2cc(=O)n(C)c3ccc(C#N)nc23)CCN1C(c1ccc(Cl)cc1)c1ccc(Cl)cc1` [Example 167, (R)-8-(4-(bis(4-chlorophenyl)methyl)-3-isopropylpiperazin-1-yl)-5-methyl-6-oxo-5,6-dihydro-1,5-naphthyridine-2-carbonitrile], the half-maximal effective concentration (EC50) in the assay on Human venous whole blood (Homo sapiens, 24 h) stood at 20 µM; with naïve human CD8 T cells (Homo sapiens, T-cell, 20 h), 10 µM. For the same compound, the IC50 turned out to be 7.7 µM on human DGKα; 58 µM on human DGKζ; 10 µM in assay [1] (Mus musculus, MC-38).
As to `CC(C)[C@@H]1CN(C(c2ccc(F)cc2)c2ccc(F)cc2)CCN1c1cc(=O)n(C)c2ccc(C#N)nc12` [Example 181, (R)-8-(4-(bis(4-fluorophenyl)methyl)-2-isopropylpiperazin-1-yl)-5-methyl-6-oxo-5,6-dihydro-1,5-naphthyridine-2-carbonitrile], the EC50 in the assay with Human venous whole blood (Homo sapiens, 24 h) was 20 µM; in the assay with naïve human CD8 T cells (Homo sapiens, T-cell, 20 h) it was 10 µM. For the same compound, the IC50 at human DGKα was 240 µM; at human DGKζ, 240 µM; in assay [1] (Mus musculus, MC-38), 10 µM.
Consider `Cn1c(=O)cc(N2CCN(C(c3ccc(F)cc3)c3ccc(F)cc3)C(CF)C2)c2nc(C#N)ccc21` (stereo not shown) [Example 8, 8-(4-(bis(4-fluorophenyl)methyl)-3-(fluoromethyl)piperazin-1-yl)-5-methyl-6-oxo-5,6-dihydro-1,5-naphthyridine-2-carbonitrile], for which the EC50 was 14 µM with Human venous whole blood (Homo sapiens, 24 h) and 0.23 µM in the assay with naïve human CD8 T cells (Homo sapiens, T-cell, 20 h). The IC50 stood at 17 µM on human DGKα; 5 µM at human DGKζ; 1 µM in assay [1] (Mus musculus, MC-38).
`Cn1c(=O)cc(N2CCN(C(c3ccc(F)cc3)c3ccc(F)cc3)C(C(=O)OC3CC3)C2)c2nc(C#N)ccc21` (single isomer, unassigned) [Example 107, cyclopropyl 1-(bis(4-fluorophenyl)methyl)-4-(6-cyano-1-methyl-2-oxo-1,2-dihydro-1,5-naphthyridin-4-yl)piperazine-2-carboxylate]: the concentration for a half-maximal effect (EC50) was 11 µM in the assay with Human venous whole blood and 0.027 µM in the assay with naïve human CD8 T cells. For the same compound, the IC50 on human DGKα came to 40 µM; on human DGKζ, 0.2 µM; in assay [1], 0.75 µM.
On the same counts, the results for `COCC1CN(c2cc(=O)n(C)c3ccc(C#N)nc23)CCN1C(c1ccc(F)cc1)c1ccc(F)cc1` (single isomer, unassigned) [Example 92, 8-(4-(bis(4-fluorophenyl)methyl)-3-(methoxymethyl)piperazin-1-yl)-5-methyl-6-oxo-5,6-dihydro-1,5-naphthyridine-2-carbonitrile] are 9 µM, 9.7 µM, 96 µM, 5.4 µM and 0.69 µM.
As to `C[C@@H]1CN(c2c(Cl)c(=O)n(C)c3ccc(C#N)nc23)[C@@H](C)CN1C(c1ccc(Cl)cc1)c1ccc(Cl)cc1` [Example 26, 8-((2S,5R)-4-(bis(4-chlorophenyl)methyl)-2,5-dimethylpiperazin-1-yl)-7-chloro-5-methyl-6-oxo-5,6-dihydro-1,5-naphthyridine-2-carbonitrile], the EC50 with Human venous whole blood (Homo sapiens, 24 h) worked out at 20 µM; in the assay with naïve human CD8 T cells (Homo sapiens, T-cell, 20 h), 2.3 µM. Further, the half-maximal inhibitory concentration (IC50) came to 24 µM at human DGKα; 3 µM on human DGKζ; 10 µM in assay [1] (Mus musculus, MC-38).

(Values after patent US10669272B2, “Substituted naphthyridinone compounds useful as T cell activators” (BRISTOL-MYERS SQUIBB COMPANY, priority 2018, dated 2020).)
